Data published in paper PMC9822497, “Identification of Polyphenol Derivatives as Novel SARS-CoV-2 and DENV Non-Nucleoside RdRp Inhibitors” (Molecules, 2022).
Where two headings read alike, the source gives them in different places.

Tests used:
[1] = target: SARS-CoV-2 RdRp complex nsp12/nsp8/nsp7 (Severe acute respiratory syndrome coronavirus 2, UniProt P0DTD1); experiment: biochemical; details: for inhibition at 50 µM: read-out: Inhibition Rate (%); for IC50: seven concentrations 0.4 to 100 μM, mean ± SD of two independent experiments, read-out: IC50 against SARS-CoV-2 RdRp
SARS-CoV-2 [2] = details: cited from earlier work
DENV3 [3] = system: DENV3; design: method as in PMID 34424050; details: DENV3 in vitro; cited from earlier work
DENV2 = system: DENV2; design: method as in PMID 34424050; details: DENV2 in vitro; cited from earlier work
SARS-CoV-2 [4] = experiment: microbe, parasite or virus in culture; assay type: cell-based; details: for EC50: Severe acute respiratory syndrome coronavirus 2, Vero C1008
in vitro [5] = details: African green monkey
DENV3 [6] = experiment: DENV3 cell-based qRT-PCR antiviral assay in A549 cells; details: for EC50 / Selective Index: DENV3/A549
Procedure: The virus DENV3 clinical strain and A549 cells were used in the cell-based qRT-PCR antiviral assays. Evaluation of antiviral activity was performed as described previously. Briefly, cells infected by dengue virus in the presence of 5-fold serial dilutions of compounds were maintained for 72 h. Supernatant was collected and the virus yield was measured by Cells Direct One-step qRT-PCR kit (Thermo Fisher), according to manufacturer’s instructions. Dose-response data were analyzed by nonlinear regression using GraphPad Prism software. The toxicity of compounds was evaluated in standard MTS analysis without virus in A549 cell line. Graphpad Prism 9.2.0 was used to calculate EC50 (half maximal effective concentration) and CC50 (half cytotoxic concentration) values.

in vitro [7] = details: human
[8] = target: Dengue virus RdRp (DENV NS5) (Dengue virus type 3, UniProt Q6YMS4); experiment: Fluorescent plate DENV RdRp assay; assay type: biochemical; details: for IC50: purified recombinant Dengue virus RdRp, average ± SD of 2 independent experiments; for Detectable inhibition towards DENV RdRp: screen of Table 1 compounds
Procedure: To further exploit pan-RNA virus inhibition of the compounds in Table 1, the compounds were evaluated as potential inhibitors of the RdRp domain of DENV NS5. We used a fluorescent-based assay to screen the compounds from Table 1 as potential DENV RdRp inhibitors.
Expression and purification of recombinant Dengue virus NS5 has been described previously. Florescent plate assay based on poly rC RNA and the fluorescent dye PicoGreen was well established for screening inhibitors against Dengue virus RdRp activity. RdRp assays were performed in a 60 μL reaction mixture containing 1.5 μM DENV NS5, 1 µg poly rC, 100 μM GTP, various concentrations of compounds, 5% DMSO, 40 mM Tris–HCl (pH 7.0), 2 mM MnCl2, and 5 mM DTT. The reaction was incubated at 30 °C for 60 min and terminated with 10 mM EDTA after which 100 μL of 200-fold diluted fluorescent dye PicoGreen in TE buffer was added to each well and incubated for 5 min at room temperature. Microplate reader was used to quantitate the amount of dsRNA Fluorescence, under excitation and emission wavelengths of 480 and 520 nm, respectively. Dose-response data were analyzed by nonlinear regression using GraphPad Prism 9.2.0 software. The mean of IC50 values and standard deviation (SD) were determined from the results of two independent experiments.

DENV = system: DENV; design: method as in PMID 26574011, PMID 33160000; details: cited from earlier work
[9] = preliminary screening, single concentration of 50 μM

Dengue virus RdRp (DENV NS5), sequence (Q6YMS4 2491-3390 limits assumed): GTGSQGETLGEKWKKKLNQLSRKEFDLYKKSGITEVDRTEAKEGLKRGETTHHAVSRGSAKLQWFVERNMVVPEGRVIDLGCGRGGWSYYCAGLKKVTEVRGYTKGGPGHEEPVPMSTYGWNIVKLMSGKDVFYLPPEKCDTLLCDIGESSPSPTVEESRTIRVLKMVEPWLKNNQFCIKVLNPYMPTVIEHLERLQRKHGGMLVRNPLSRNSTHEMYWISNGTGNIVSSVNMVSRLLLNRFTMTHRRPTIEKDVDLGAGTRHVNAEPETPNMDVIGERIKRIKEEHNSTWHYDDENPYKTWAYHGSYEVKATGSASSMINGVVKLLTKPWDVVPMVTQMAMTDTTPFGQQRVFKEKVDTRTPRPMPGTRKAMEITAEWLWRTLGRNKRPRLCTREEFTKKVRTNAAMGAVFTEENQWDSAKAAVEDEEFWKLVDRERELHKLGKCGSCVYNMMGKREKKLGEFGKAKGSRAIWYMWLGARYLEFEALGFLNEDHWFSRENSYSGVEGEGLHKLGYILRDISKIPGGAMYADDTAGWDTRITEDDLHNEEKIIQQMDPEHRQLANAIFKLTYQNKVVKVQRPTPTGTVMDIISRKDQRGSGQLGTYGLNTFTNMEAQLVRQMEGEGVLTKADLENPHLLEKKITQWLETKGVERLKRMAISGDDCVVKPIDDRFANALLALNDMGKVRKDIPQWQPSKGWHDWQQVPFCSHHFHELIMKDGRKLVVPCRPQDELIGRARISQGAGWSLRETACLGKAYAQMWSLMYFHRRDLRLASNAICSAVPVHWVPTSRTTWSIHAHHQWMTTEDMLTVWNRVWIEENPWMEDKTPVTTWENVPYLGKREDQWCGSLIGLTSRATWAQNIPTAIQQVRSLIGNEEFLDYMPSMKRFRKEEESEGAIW

Nc1ccc(S(=O)(=O)N2CCN(C(=O)c3cc(O)c(O)c(O)c3)CC2C(=O)Nc2ccccc2)cc1 (centres unmarked) [DF-57]
melting point: 173 to 176 °C | inhibition at 50 µM [1]: 85%

CC(C)C(=O)OC[C@H]1O[C@@H](n2ccc(NO)nc2=O)[C@H](O)[C@@H]1O [Molnupiravir]
EC50 (SARS-CoV-2 [2]; nucleoside RdRp inhibitors): 0.3 µM

Bemnifosbuvir
EC90 (SARS-CoV-2 [2]): 0.47 µM | EC50 (DENV3 [3]): 0.77 µM | EC50 (DENV2): 0.48 µM

Nc1ccc(S(=O)(=O)N2CCN(C(=O)c3cc(O)c(O)c(O)c3)C(C(=O)NCc3ccco3)C2)cc1 (centres unmarked) [DF-36]
melting point: 181 to 184 °C | Inhibition of RdRp activity at 10 μM (gel) [1]: remained partially active | inhibition at 50 µM [1]: 87%

Nc1ccc(S(=O)(=O)N2CCN(C(=O)c3cc(O)c(O)c(O)c3)CC2C(=O)NCc2ccc(-c3ccccc3)cc2)cc1 (centres unmarked) [DF-69]
melting point: 192 to 195 °C | inhibition at 50 µM [1]: 72%

CCC(CC)COC(=O)[C@H](C)N[P@](=O)(OC[C@H]1O[C@@](C#N)(c2ccc3c(N)ncnn23)[C@H](O)[C@@H]1O)Oc1ccccc1 [Remdesivir, reference compound]
EC50 (SARS-CoV-2 [4]): 0.046 ± 0.0002 µM | CC50 (in vitro [5]): 10.1 µM

Nc1ccc(S(=O)(=O)N2CCN(C(=O)c3cc(O)c(O)c(O)c3)CC2C(=O)NCc2cccs2)cc1 (centres unmarked) [DF-68]
melting point: 213 to 216 °C | inhibition at 50 µM [1]: 73%

CN(C(=O)C1CN(C(=O)c2cc(O)c(O)c(O)c2)CCN1S(=O)(=O)c1ccc(N)cc1)c1ccccc1 (centres unmarked) [DF-63]
melting point: 172 to 175 °C | inhibition at 50 µM [1]: 75%

O=C(O)[C@H]1O[C@@H](Oc2cc3oc(-c4ccccc4)cc(=O)c3c(O)c2O)[C@H](O)[C@@H](O)[C@@H]1O [Baicalin]
EC50 (SARS-CoV-2 [2]; SARS-CoV-2 inhibitors): 9 µM

N#Cc1ccc(S(=O)(=O)N2CCN(C(=O)c3cc(O)c(O)c(O)c3)C(C(=O)NCc3ccc(-c4ccccc4)cc3)C2)cc1 (centres unmarked) [DF-51]
Inhibition of DENV3 in A549 cells (DENV3 [6]): moderate inhibition | EC50 (DENV3 [6]): 21.5 ± 14.9 µM | Selective Index (DENV3 [6]): >4.6 | Antiviral activity against SARS-CoV-2 in vitro (SARS-CoV-2 [4]): no significant antiviral activity | EC50 (SARS-CoV-2 [4]): > 89 µM | CC50 (in vitro [5]): > 100 µM | Inhibition of RdRp activity at 10 μM (gel) [1]: remained partially active | inhibition at 50 µM [1, 9]: 90% | IC50 [1]: 22 ± 1.3 µM | CC50 (in vitro [7]): > 100 µM | IC50 [8]: 4.8 ± 0.7 µM | Detectable inhibition towards DENV RdRp [8]: detectable inhibition

COc1ccc(CNC(=O)C2CN(C(=O)c3cc(O)c(O)c(O)c3)CCN2S(=O)(=O)c2ccc(N)cc2)cc1 (centres unmarked) [DF-64]
melting point: 202 to 205 °C | inhibition at 50 µM [1]: 80%

Nc1ccc(S(=O)(=O)N2CCN(C(=O)c3cc(O)c(O)c(O)c3)C(C(=O)NCc3ccc(-c4ccccc4)cc3)C2)cc1 (centres unmarked) [DF-47]
Inhibition of DENV3 in A549 cells (DENV3 [6]): moderate inhibition | EC50 (DENV3 [6]): 51.9 ± 26.3 µM | Selective Index (DENV3 [6]): >1.9 | Antiviral activity against SARS-CoV-2 in vitro (SARS-CoV-2 [4]): no significant antiviral activity | EC50 (SARS-CoV-2 [4]): > 100 µM | melting point: 193 to 196 °C | CC50 (in vitro [5]): > 100 µM | Inhibition of RdRp activity at 10 μM (gel) [1]: remained partially active | inhibition at 50 µM [1, 9]: 92% | IC50 [1]: 9.2 ± 1.1 µM | CC50 (in vitro [7]): > 100 µM | IC50 [8]: 14 ± 2.3 µM | Detectable inhibition towards DENV RdRp [8]: detectable inhibition

O=c1cc(-c2ccccc2)oc2cc(O)c(O)c(O)c12 [Baicalein, reference compound]
Selective Index (SARS-CoV-2 [4]): 19.1 | EC50 (SARS-CoV-2 [4]): 4.5 µM | CC50 (in vitro [5]): 86 µM | Inhibition of RdRp activity at 10 μM (gel) [1]: remained partially active

O=C(NO)c1ncc(CS(=O)(=O)c2ccccc2)c(CO)c1O [DMB220]
EC50 (DENV): 2.7 ± 0.6 µM

Nc1ccc(S(=O)(=O)N2CCN(C(=O)c3cc(O)c(O)c(O)c3)CC2C(=O)NCc2cccc3ccccc23)cc1 (centres unmarked) [DF-67]
melting point: 189 to 192 °C | inhibition at 50 µM [1]: 83%

COc1ccc(CNC(=O)C2CN(S(=O)(=O)c3ccc(N)cc3)CCN2C(=O)c2cc(O)c(O)c(O)c2)cc1 (centres unmarked) [DF-35]
melting point: 192 to 195 °C | inhibition at 50 µM [1]: 81%

CC(C)(C)OC(=O)N1CCC2(CCN(C(=O)C3CN(C(=O)c4cc(O)c(O)c(O)c4)CCN3S(=O)(=O)c3ccc(N)cc3)C2)C1 (centres unmarked) [DF-71]
melting point: 192 to 195 °C | inhibition at 50 µM [1]: 70%
